{"source": "patent US20240165281A1", "about": "“DUAL MODE RADIOTRACER AND THERAPEUTICS” (Technische Universität München, priority 2021, published 2024)", "key": {"[1]": {"details": "Wängler et al. 2010; cited from earlier work"}, "[2]": {"molecular_target": "T1, Human Serum Albumin (HSA) (Homo sapiens, UniProt P02768)", "T1 construct": "purchased Daicel H13H-2433", "T1 sequence (P02768 25-609)": "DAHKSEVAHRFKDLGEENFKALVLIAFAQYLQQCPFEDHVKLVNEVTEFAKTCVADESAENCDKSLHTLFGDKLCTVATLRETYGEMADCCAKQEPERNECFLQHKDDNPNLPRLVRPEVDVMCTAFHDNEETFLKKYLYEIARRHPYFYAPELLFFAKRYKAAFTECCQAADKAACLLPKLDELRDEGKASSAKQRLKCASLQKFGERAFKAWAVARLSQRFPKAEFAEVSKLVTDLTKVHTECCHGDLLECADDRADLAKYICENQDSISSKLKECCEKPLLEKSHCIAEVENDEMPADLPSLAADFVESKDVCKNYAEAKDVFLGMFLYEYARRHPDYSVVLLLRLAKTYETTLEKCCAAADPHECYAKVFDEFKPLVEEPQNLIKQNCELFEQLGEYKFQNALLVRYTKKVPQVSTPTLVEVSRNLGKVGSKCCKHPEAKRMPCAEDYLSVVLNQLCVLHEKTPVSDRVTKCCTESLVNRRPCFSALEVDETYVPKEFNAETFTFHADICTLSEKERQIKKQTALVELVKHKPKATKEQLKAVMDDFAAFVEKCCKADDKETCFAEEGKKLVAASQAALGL", "assay": "Human serum albumin (HSA) binding by high performance affinity chromatography (HPAC)", "type": "in vitro ADME", "details": "Chiralpak HSA column", "protocol": "Determination of Human Serum Albumin (HSA) Binding by High Performance Affinity Chromatography (HPAC)\nHSA binding of the PSMA-addressing ligands was determined according to a previously published procedure via HPLC (Valko, K.; Nunhuck, S.; Bevan, C.; Abraham, M. H.; Reynolds, D. P. Journal of pharmaceutical sciences 2003, 92, 2236-2248). A Chiralpak HSA column (50×3 mm, 5 μm, H13H-2433, Daicel, Tokyo, Japan) was used at a constant flow rate of 0.5 mL/min at rt. Mobile phase A was a freshly prepared 50 mM aqueous solution of NH4OAc (pH 6.9) and mobile phase B was isopropanol (HPLC grade, VWR). The applied gradient for all experiments was 100% A (0 to 3 min), followed by 80% A (3 to 40 min). Prior to the experiment, the column was calibrated using nine reference substances with a HSA binding, known from literature, in the range of 13 to 99% (Valko, K.; Nunhuck, S.; Bevan, C.; Abraham, M. H.; Reynolds, D. P. Journal of pharmaceutical sciences 2003, 92, 2236-2248; Yamazaki, K.; Kanaoka, M. Journal of Pharmaceutical sciences 2004, 93, 1480-1494). All substances, including the examined PSMA ligands, were dissolved in a 1:1 mixture (v/v) of isopropanol and a 50 mM aqueous solution of NH4OAc (pH6.9) with a final concentration of 0.5 mg/mL. Non-linear regression was established with the OriginPro 2016G software (Northampton, United States) (FIG. 8)."}, "PSMA": {"molecular_target": "T2, PSMA (Homo sapiens, UniProt Q04609)", "T2 construct": "PSMA-positive LNCAP cells (300265; Cell Lines Service, Eppelheim, Germany); host or cells: LNCaP cells", "T2 sequence (Q04609 whole entry)": "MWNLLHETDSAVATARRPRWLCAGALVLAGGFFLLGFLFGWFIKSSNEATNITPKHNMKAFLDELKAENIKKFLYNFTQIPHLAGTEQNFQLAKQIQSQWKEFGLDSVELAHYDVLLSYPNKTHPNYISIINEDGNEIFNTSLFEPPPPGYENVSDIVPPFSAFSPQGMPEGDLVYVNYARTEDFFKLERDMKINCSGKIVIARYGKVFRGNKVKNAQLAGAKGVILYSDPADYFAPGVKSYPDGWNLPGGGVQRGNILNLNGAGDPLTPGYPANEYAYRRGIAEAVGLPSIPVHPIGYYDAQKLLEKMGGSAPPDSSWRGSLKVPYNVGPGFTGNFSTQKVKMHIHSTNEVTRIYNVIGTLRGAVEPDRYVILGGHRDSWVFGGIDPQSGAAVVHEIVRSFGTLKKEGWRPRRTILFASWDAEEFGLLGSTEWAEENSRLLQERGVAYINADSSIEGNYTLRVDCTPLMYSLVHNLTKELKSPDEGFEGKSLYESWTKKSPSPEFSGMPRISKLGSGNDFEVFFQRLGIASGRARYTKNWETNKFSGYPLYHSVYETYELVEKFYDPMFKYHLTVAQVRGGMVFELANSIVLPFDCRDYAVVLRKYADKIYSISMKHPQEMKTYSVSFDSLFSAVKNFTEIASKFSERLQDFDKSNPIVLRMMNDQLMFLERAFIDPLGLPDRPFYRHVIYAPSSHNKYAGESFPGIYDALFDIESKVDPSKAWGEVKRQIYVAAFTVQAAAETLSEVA", "assay": "PSMA affinity (IC50), competition with [125I]I-BA-KuE on LNCaP cells", "type": "binding", "details": "natLu complex, on ice 60 min, read-out: IC50", "protocol": "A mixture of trypsin and EDTA (0.05%, 0.02%) in PBS (Biochrom) was used in order to harvest cells. Cells were counted with a Neubauer hemocytometer (Paul Marienfeld, Lauda-Königshofen, Germany).\nAffinity Determinations (IC50)\nIn the case of metal-complexed ligands, the crude reaction mixture was diluted analogously, without further purification. Cells were harvested 24±2 hours prior to the experiment and seeded in 24-well plates (1.5×10^5 cells in 1 mL/well). […] The media of both steps were combined in one fraction and represent the amount of free radioligand. Afterwards, the cells were lysed with 250 μL of 1 M aqueous NaOH for at least 10 min. After a washing step (250 μL of 1 M NaOH), both fractions, representing the amount of bound ligand, were united. Quantification of all collected fractions was accomplished in a γ-counter. PSMA-affinity determinations were carried out at least three times per ligand."}, "[3]": {"system": "LNCaP tumor-bearing male CB-17 SCID mice", "assay": "Biodistribution studies 24 h p.i.", "description": "Approximately 3-7 MBq (0.1-0.2 nmol) of the radioactive-labelled PSMA inhibitors were injected into the tail vein of LNCaP tumor-bearing male CB-17 SCID mice and sacrificed after 24 h post injection. Selected organs were removed, weighted and measured in a γ-counter. Results are all decay corrected and given in % injected dose per gram of tissue (% iD/g). Tumor-to-organ ratios are calculated from animals' individual ratios and are given as mean±standard deviation."}, "[4]": {"assay": "Octanol-water partition coefficient (log D7.4)", "type": "physicochemical", "details": "PBS pH 7.4 / n-octanol, 177Lu-labelled", "protocol": "Octanol-Water Partition Coefficient (log D7.4)\nApproximately 1 MBq of the labelled tracer was dissolved in 1 mL of a 1:1 mixture (v/v) of PBS (pH 7.4) and n-octanol in a reaction vial (1.5 mL). After vigorous mixing of the suspension for 3 minutes at room temperature, the vial was centrifuged at 15000 g for 3 minutes (Biofuge 15, Heraus Sepatech, Osterode, Germany) and 100 μL aliquots of both layers were measured in a gamma counter. The experiment was repeated at least six times."}, "LNCaP cells": {"system": "LNCaP cells", "assay": "Internalization studies in LNCaP cells", "type": "cell-based", "details": "37° C., 60 min, normalized to reference", "protocol": "PSMA-positive LNCAP cells (300265; Cell Lines Service, Eppelheim, Germany) were cultivated in Dulbecco modified Eagle medium/Nutrition Mixture F-12 with Glutamax (1:1) (DMEM-F12, Biochrom, Berlin, Germany) supplemented with fetal bovine serum (10%, FBS Zellkultur, Berlin, Germany) and kept at 37° C. in a humidified CO2 atmosphere (5%). A mixture of trypsin and EDTA (0.05%, 0.02%) in PBS (Biochrom) was used in order to harvest cells. Cells were counted with a Neubauer hemocytometer (Paul Marienfeld, Lauda-Königshofen, Germany).\nFor internalization studies, LNCaP cells were harvested 24±2 hours before the experiment and seeded in poly-L-lysine coated 24-well plates (1.25×10^5 cells in 1 mL/well, Greiner Bio-One, Kremsmünster, Austria). After removal of the culture medium, the cells were washed once with 500 μL DMEM-F12 (5% BSA) and left to equilibrate for at least 15 min at 37° C. in […] DMEM-F12 (5% BSA). Each well was treated with either 25 μL of either DMEM-F12 (5% BSA, control) or 25 μL of a 100 μM PMPA (2-(Phosphonomethyl)-pentandioic acid, Tocris Bioscience, Bristol, UK) solution in PBS, for blockade. Next, 25 μL of the radioactive-labelled PSMA inhibitor (10.0 nM in DMEM-F12 (5% BSA)) was added and the cells were incubated at 37° C. for 60 min. The experiment was terminated by placing the 24-well plate on ice for 3 min and consecutive removal of the medium. Each well was carefully washed with 250 μL of ice-cold HBSS. Both fractions from the first steps, representing the amount of free radioligand, were combined. Removal of surface bound activity was accomplished by incubation of the cells with 250 μL of ice-cold PMPA (10 μM in PBS) solution for 5 min and rinsed again with another 250 μL of ice-cold PBS. The internalized activity was determined by incubation of the cells in 250 μL […] aqueous NaOH for at least 10 min. The obtained fractions were combined with those of the subsequent wash step with 250 μL 1 M aqueous NaOH. Each experiment (control and blockade) was performed in triplicate. Free, surface bound and internalized activity was quantified in a y-counter. All internalization studies were accompanied by external reference studies, using ([^125I]I-BA)KuE (c=0.2 nM), which were performed analogously. Data were corrected for non-specific binding and normalized to the specific-internalization observed for the radioiodinated reference compound."}, "[5]": {"assay": "Apparent molecular weight (MWapp)"}}}
{"compound": "SIFA-Asn(AcNH-β-Glc)-PEG-Tyr^3 -octreotate", "values": [{"measurement": "log P(ow)", "setting": "[1]", "result": 0.96}]}
{"compound": "SIFA-Asn(AcNH-β-Glc)-Tyr^3 -octreotate", "values": [{"measurement": "log P(ow)", "setting": "[1]", "result": 1.23}]}
{"compound": "CC(C)(C)[Si](F)(c1ccc(C(=O)NC[C@@H](NC(=O)[C@@H](CCCNC(N)=O)NC(=O)CC[C@@H](C(=O)O)N2CCN(CC(=O)O)CCN(CC(=O)O)CCN(CC(=O)O)CC2)C(=O)NCCCCCC(=O)NCCC[C@@H](NC(=O)CC[C@H](NC(=O)N[C@@H](CCC(=O)O)C(=O)O)C(=O)O)C(=O)O)cc1)C(C)(C)C", "note": "[Compound 2C014]", "values": [{"measurement": "HSA (HPAC)", "setting": "[2]", "result": 94.6, "unit": "%"}, {"measurement": "IC50", "setting": "PSMA", "result": "3.95 ± 1.36", "unit": "nM"}, {"measurement": "In vivo biodistribution (24 h p.i.) blood", "setting": "[3]; Table 6", "result": "0.0014 ± 0.0006", "unit": "% iA/g"}, {"measurement": "In vivo biodistribution (24 h p.i.) kidney", "setting": "[3]; Table 6", "result": "2.77 ± 0.84", "unit": "% iA/g"}, {"measurement": "In vivo biodistribution (24 h p.i.) tumor", "setting": "[3]; Table 6", "result": "16.54 ± 3.37", "unit": "% iA/g"}, {"measurement": "uptake in adrenals", "setting": "[3]; mean", "result": 0.1473, "unit": "% iD/g"}, {"measurement": "uptake in blood", "setting": "[3]; mean", "result": 0.0014, "unit": "% iD/g"}, {"measurement": "uptake in bone", "setting": "[3]; mean", "result": 0.0327, "unit": "% iD/g"}, {"measurement": "uptake in heart", "setting": "[3]; mean", "result": 0.0245, "unit": "% iD/g"}, {"measurement": "uptake in intestine", "setting": "[3]; mean", "result": 0.1006, "unit": "% iD/g"}, {"measurement": "uptake in kidney", "setting": "[3]; mean", "result": 2.7708, "unit": "% iD/g"}, {"measurement": "uptake in liver", "setting": "[3]; mean", "result": 0.2376, "unit": "% iD/g"}, {"measurement": "uptake in lung", "setting": "[3]; mean", "result": 0.0654, "unit": "% iD/g"}, {"measurement": "uptake in muscle", "setting": "[3]; mean", "result": 0.0107, "unit": "% iD/g"}, {"measurement": "uptake in pancreas", "setting": "[3]; mean", "result": 0.0192, "unit": "% iD/g"}, {"measurement": "uptake in parotid gl.", "setting": "[3]; mean", "result": 0.09, "unit": "% iD/g"}, {"measurement": "uptake in spleen", "setting": "[3]; mean", "result": 0.4296, "unit": "% iD/g"}, {"measurement": "uptake in stomach", "setting": "[3]; mean", "result": 0.0367, "unit": "% iD/g"}, {"measurement": "uptake in submand. gl.", "setting": "[3]; mean", "result": 0.0555, "unit": "% iD/g"}, {"measurement": "uptake in tumor", "setting": "[3]; mean", "result": 16.5415, "unit": "% iD/g"}, {"measurement": "logD7.4", "setting": "[4]", "result": "−3.37 ± 0.10"}, {"measurement": "Internalization", "setting": "LNCaP cells", "result": "235 ± 20", "unit": "% IBA"}, {"measurement": "MWapp", "setting": "[5]", "result": 19.2, "unit": "kDa"}]}
